Measured values taken from BindingDB's records for doi:10.7270/Q2319T8T (The Scripps Research Institute Molecular Screening Center, 2007).
Where a name gives a salt, the structure may show the parent alone.

Biological target: Steroidogenic factor 1 (Homo sapiens, UniProt Q13285)
Assay: SF-1 inhibitor potency, dose response, cell-based, CHO-K1, Gal4-SF-1 LBD, luciferase luminescence (AID 600)
[1] = inactive by the depositor's call

Sequence of Steroidogenic factor 1 (Q13285 whole entry, the tested form may be a part): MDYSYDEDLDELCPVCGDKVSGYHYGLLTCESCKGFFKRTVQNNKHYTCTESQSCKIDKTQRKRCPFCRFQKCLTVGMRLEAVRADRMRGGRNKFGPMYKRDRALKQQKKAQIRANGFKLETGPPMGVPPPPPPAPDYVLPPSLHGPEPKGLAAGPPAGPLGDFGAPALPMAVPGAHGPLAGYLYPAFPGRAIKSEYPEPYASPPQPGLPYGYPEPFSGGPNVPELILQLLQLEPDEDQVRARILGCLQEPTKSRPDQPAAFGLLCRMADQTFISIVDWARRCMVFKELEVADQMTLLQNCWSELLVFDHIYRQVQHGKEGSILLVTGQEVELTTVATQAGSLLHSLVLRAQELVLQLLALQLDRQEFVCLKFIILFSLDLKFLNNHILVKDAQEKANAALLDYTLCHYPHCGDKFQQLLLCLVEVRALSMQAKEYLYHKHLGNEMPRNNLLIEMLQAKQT

SMILES | IC50 [µM] | IC50 [1] [µM]
CCOC(=O)C(C)Oc1cccc2c(=O)n(CC(=O)Nc3ccc4c(c3)OCCO4)ccc12 (stereo unspecified) | 0.837 | 
CCC(NC(=O)Nc1nnc(C(F)(F)F)s1)(C(F)(F)F)C(F)(F)F | > 11 | 
O=S1(=O)C=C(Sc2nnc(-c3ccccc3)o2)c2ccccc21 | 3.9 | 
CCc1ccc(-c2nnn(CCC(=O)OC)n2)cc1 | 6.69 | 
Cn1ncnc2c(=O)n(C)c(=O)nc1-2 | 0.75 | 
O=C1c2ccccc2C(=O)C1c1ccc2ccccc2n1 | 6.72 | 
CCN(CC)c1ccc(-c2nn3c(-c4ccccc4OC)nnc3s2)cc1 | 5.03 | 
Cc1ccc2[nH]c3c(N4CCN(Cc5ccc6c(c5)OCO6)CC4)ncnc3c2c1 | 7.31 | 
Fc1ccc2[nH]c3c(N4CCN(c5ccccc5)CC4)ncnc3c2c1 | 1.06 | 
CC(C)OCCCNc1ncnc2c1[nH]c1ccc(F)cc12 |  | 20.7
CN1/C(=C/C(=O)c2nc(S(C)(=O)=O)ncc2Cl)C(C)(C)c2ccccc21 |  | 15.5
CCCCOC(=O)c1[nH]c2c(c1C)C(=O)CC(c1cc(OC)c(OC)c(OC)c1)C2 (stereo unspecified) |  | 16.9
CC[C@H]1CN2CCc3cc(OC)c(OC)cc3[C@@H]2C[C@@H]1C[C@H]1NCCc2cc(OC)c(OC)cc21 | 0.202 | 
[H][C@@]12C[N@@](CCc3c([nH]c4ccccc34)[C@@](C(=O)OC)(c3cc4c(cc3OC)N(C=O)[C@]3([H])[C@]45CC[N@@]4CC=C[C@@](CC)([C@@H](OC(C)=O)[C@]3(O)C(=O)OC)[C@]45[H])C1)C[C@](O)(CC)C2 | 3.56 | 
Clc1ccc(-c2nnc(NC3=NCCCCC3)o2)cc1 | > 3.67 | 
COc1cc2nc(S)n3nc(CCn4nc(C)cc4C)nc3c2cc1OC | 5.04 | 
O=C(CC=Nc1cccc(F)c1)c1ccc2c(c1)OCO2 | 4.65 | 
Nc1nsc2ccccc12 [1,2-benzothiazol-3-amine] | 6.84 | 
Cc1ccc(C(C)C)c(OCCNc2nc3c(c(=O)n(C)c(=O)n3C)n2C)c1 [1,3,7-trimethyl-8-[2-(5-methyl-2-propan-2-yl-phenoxy)ethylamino]purine-2,6-dione] | > 99 | 
Cc1ccc(CNc2nc3ccccc3s2)s1 [1,3-benzothiazol-2-yl-[(5-methyl-2-thienyl)methyl]amine] | > 11 | 
COc1cc2c(C#N)c(N3CCN(c4ccccc4OC)CC3)nc(N)c2c(N)n1 [1,8-diamino-6-methoxy-3-(4-(2-methoxyphenyl)piperazin-1-yl)-2,7-naphthyridine-4-carbonitrile] |  | 29.7

SMILES | IC50 [µM] | IC50 [1] [µM]
CC(NC(=O)Nc1nnc(C(F)(F)F)s1)(C(F)(F)F)C(F)(F)F [1-(1,1,1,3,3,3-hexafluoro-2-methylpropan-2-yl)-3-[5-(trifluoromethyl)-1,3,4-thiadiazol-2-yl]urea] | 6.25 | 
O=C(CSc1nnc(COc2cccc3cccnc23)o1)N1CCc2ccccc21 [1-(2,3-Dihydro-indol-1-yl)-2-[5-(quinolin-8-yloxymethyl)-[1,3,4]oxadiazol-2-ylsulfanyl]-ethanone] | 4.4 | 
Cc1ccccc1S(=O)(=O)Cc1ccc(C(=O)N2CCN(c3cccc(C)c3C)CC2)o1 [1-(2,3-dimethylphenyl)-4-(5-{[(2-methylphenyl)sulfonyl]methyl}-2-furoyl)piperazine] |  | 13.4
Cc1occc1C(=O)N1CCN(c2ccc(Cl)c(Cl)c2)CC1 [1-(3,4-dichlorophenyl)-4-(2-methyl-3-furoyl)piperazine] |  | 29.7
CCOc1ccccc1C(=O)N1CCN(c2cccc(Cl)c2)CC1 [1-(3-chlorophenyl)-4-(2-ethoxybenzoyl)piperazine] | > 1.22 | 
CCCS(=O)(=O)c1nnnn1-c1cccc(OC)c1 [1-(3-methoxyphenyl)-5-(propylsulfonyl)-1H-tetrazole] | 4.96 | 
Cc1ccc(-c2nsc3c(N4CCC(C(N)=O)CC4)ncnc23)cc1 [1-(3-p-Tolyl-isothiazolo[4,5-d]pyrimidin-7-yl)-piperidine-4-carboxylic acid amide] | 0.221 | 
CC(C)NCC(O)Cn1c2c(c3ccccc31)CCc1c-2cnn1-c1ccccc1 (stereo unspecified) [1-(3-phenyl-4,5-dihydropyrazolo[4,3-a]carbazol-10-yl)-3-(propan-2-ylamino)-2-propanol] | 5.85 | 
Clc1ccc(-n2ncc3c(N4CCCC4)ncnc32)cc1 [1-(4-chlorophenyl)-4-(1-pyrrolidinyl)pyrazolo[3,4-d]pyrimidine] | 3.17 | 
CC1CCCN(c2ncnc3c2cnn3-c2ccc(Cl)cc2)C1 (stereo unspecified) [1-(4-chlorophenyl)-4-(3-methyl-1-piperidinyl)pyrazolo[3,4-d]pyrimidine] | < 0.00503 | 
Cc1cccc(NC(=O)Nc2ccc(C#N)cc2)n1 [1-(4-cyanophenyl)-3-(6-methyl-2-pyridinyl)urea] | > 1.22 | 
COc1ccc(O)c(C(=O)CC(=O)c2ccc(F)cc2)c1 [1-(4-fluorophenyl)-3-(2-hydroxy-5-methoxy-phenyl)propane-1,3-dione] | > 11 | 
COc1ccc(-n2ncc3c(N4CCCCC4)ncnc32)cc1 [1-(4-methoxyphenyl)-4-(1-piperidinyl)pyrazolo[3,4-d]pyrimidine] | 1.77 | 
COc1cc(CSc2nnnn2-c2ccc(C)cc2)cc(OC)c1OC [1-(4-methylphenyl)-5-[(3,4,5-trimethoxybenzyl)thio]-1H-tetrazole] |  | 16.9
CCOC(=O)C1CCN(Cc2ccc(O)c3ncccc23)CC1 [1-(8-Hydroxy-quinolin-5-ylmethyl)-piperidine-4-carboxylic acid ethyl ester] | 9.85 | 
CCn1nc(-c2ccccc2)nc2c(=O)n(C)c(=O)nc1-2 [1-Ethyl-6-methyl-3-phenyl-1H-pyrimido[5,4-e][1,2,4]triazine-5,7-dione] | 4.73 | 
COCCn1c(C)cc(C(=O)CSc2nnc(C)s2)c1C [1-[1-(2-methoxyethyl)-2,5-dimethyl-1H-pyrrol-3-yl]-2-[(5-methyl-1,3,4-thiadiazol-2-yl)thio]ethanone] | 5.45 | 
CCOC(=O)C1CCN(c2ncnc3c2cnn3-c2ccc(Cl)cc2)CC1 [1-[1-(4-chlorophenyl)-4-pyrazolo[3,4-d]pyrimidinyl]-4-piperidinecarboxylic acid ethyl ester] | 3.42 | 
Cc1csc(SCC(=O)c2cc(C)n(Cc3cccs3)c2C)n1 [1-[2,5-dimethyl-1-(2-thenyl)pyrrol-3-yl]-2-[(4-methylthiazol-2-yl)thio]ethanone] | > 3.67 | 
Cc1cc(-n2c(C)cc(C(=O)CSc3ncnc4ccccc34)c2C)no1 [1-[2,5-dimethyl-1-(5-methyl-1,2-oxazol-3-yl)pyrrol-3-yl]-2-quinazolin-4-ylsulfanyl-ethanone] | 9.13 | 
COc1ccc(NC(=O)NCCCN2CCN(c3cc(C)ccc3C)CC2)cc1 [1-[3-[4-(2,5-dimethylphenyl)-1-piperazinyl]propyl]-3-(4-methoxyphenyl)urea] |  | 24.3

SMILES | IC50 [µM] | IC50 [1] [µM]
CC(=O)c1ccc(N2CCN(c3ccc(C(F)(F)F)cn3)CC2)cc1 [1-[4-[4-[5-(trifluoromethyl)-2-pyridinyl]-1-piperazinyl]phenyl]ethanone] | > 33 | 
Cc1ccc(-c2csc3ncnc(Sc4nnc(CN5CCCCCC5=O)o4)c23)cc1 [1-[[5-[5-(4-methylphenyl)thieno[2,3-d]pyrimidin-4-yl]sulfanyl-1,3,4-oxadiazol-2-yl]methyl]azepan-2-one] | 5.76 | 
Nc1nnnn1N=C/C(Br)=C/c1ccccc1 [1-[[(Z)-2-bromanyl-3-phenyl-prop-2-enylidene]amino]-1,2,3,4-tetrazol-5-amine] | 3.17 | 
CCCCn1c2c(c(=O)n(C)c1=O)C(c1ccc(OC)cc1)N1CCCCCC1=N2 (stereo unspecified) [1-butyl-5-(4-methoxyphenyl)-3-methyl-5,7,8,9,10,11-hexahydropyrimido[3,4]pyrimid[4,5-a]azepine-2,4-quinone] | 8.03 | 
O=C(Nc1ccccc1NC(=O)NC1CCCCC1)NC1CCCCC1 [1-cyclohexyl-3-[2-(cyclohexylcarbamoylamino)phenyl]urea] | 1.64 | 
C=CS(=O)(=O)c1ccc(Oc2ccc(S(=O)(=O)C=C)cc2)cc1 [1-ethenylsulfonyl-4-(4-ethenylsulfonylphenoxy)benzene] | 4.19 | 
CCn1nc(-c2cccs2)nc2c(=O)n(C)c(=O)nc1-2 [1-ethyl-6-methyl-3-thiophen-2-yl-pyrimido[5,4-e][1,2,4]triazine-5,7-dione] | 2.65 | 
[O-][N+]1=c2ccc(Nc3ccccc3)cc2=NC12CCCCC2 [1-oxido-N-phenyl-5-spiro[benzimidazol-1-ium-2,1'-cyclohexane]amine] | 6.49 | 
c1ccc(-n2ncc3c(N4CCCCC4)ncnc32)cc1 [1-phenyl-4-(1-piperidinyl)pyrazolo[3,4-d]pyrimidine] | 5.86 | 
Cc1ccc(-c2cn3nc(C)c(C)nc3n2)cc1 [2,3-dimethyl-6-(4-methylphenyl)imidazo[1,2-b][1,2,4]triazine] |  | 20
Cc1nc2nc(-c3ccccc3)cn2nc1C [2,3-dimethyl-6-phenyl-imidazo[1,2-b][1,2,4]triazine] | > 11 | 
COc1ccc(C(=O)Nc2ccc(C)cn2)c(OC)c1 [2,4-dimethoxy-N-(5-methylpyridin-2-yl)benzamide] | 3.4 | 
COc1cc(NS(=O)(=O)c2ccc(C)cc2C)cc(OC)c1OC [2,4-dimethyl-N-(3,4,5-trimethoxyphenyl)benzenesulfonamide] | > 11 | 
O=C(c1ccccc1)C(CCC(CN1CCOCC1)C(=O)c1ccccc1)CN1CCOCC1 (stereo unspecified) [2,5-bis(4-morpholinylmethyl)-1,6-diphenylhexane-1,6-dione;hydrochloride] | 10.6 | 
Cc1oc2cc3c(C(=O)OCCN(C)C)c(C)oc3cc2c1C(=O)OCCN(C)C [2,6-Dimethyl-benzo[1,2-b;4,5-b']difuran-3,7-dicarboxylic acid bis-(2-dimethylamino-ethyl) ester] | 0.813 | 
c1ccc(-c2cccc(-c3ccccn3)n2)nc1 [2,6-bis(2-pyridinyl)pyridine] |  | 10.3
c1ccc(-c2cn3nc(-c4ccccc4)sc3n2)cc1 [2,6-diphenylimidazo[2,1-b][1,3,4]thiadiazole] | 2.02 | 
O=NC1c2cc(S(=O)(=O)N3CCCCC3)ccc2-c2ccc(S(=O)(=O)N3CCCCC3)cc21 [2,7-Bis-(piperidine-1-sulfonyl)-fluoren-9-one oxime] | 1.51 | 
COc1cc(C2c3ccc(N)cc3OC(=N)C2C#N)cc(OC)c1OC (stereo unspecified) [2,7-bis(azanyl)-4-(3,4,5-trimethoxyphenyl)-4H-chromene-3-carbonitrile] | 7.92 | 
